In PubChem BioAssay AID1963840 (Molecular Pharmacology Branch, DTP, NCI, 2024):

Test system: 695427-040-R-J1-PDC complex spheroid viability
Assay: Anticancer human tumor 695427-040-R-J1-PDC patient-derived colon adenocarcinoma cell line growth inhibition [POLQ]
Settings: for IC50: curve of first compound; for viability, T/C: stronger effect = lower value
In short: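 Three-cell-type spheroids modelling solid tumor plus stroma served as the readout system; POL inhibitors were tested individually and in combination, concentration ranges set by clinical Cmax where known.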

[1] = second compound 0.0316 µM, first compound 0.0316 µM
[2] = second compound 0.0316 µM, first compound 0.1 µM
[3] = second compound 0.0316 µM, first compound 0.316 µM
[4] = second compound 0.0316 µM, first compound 1 µM
[5] = second compound 0.1 µM, first compound 0.0316 µM
[6] = second compound 0.1 µM, first compound 0.1 µM
[7] = second compound 0.1 µM, first compound 0.316 µM
[8] = second compound 0.1 µM, first compound 1 µM
[9] = second compound 0.316 µM, first compound 0.0316 µM
[10] = second compound 0.316 µM, first compound 0.1 µM
[11] = second compound 0.316 µM, first compound 0.316 µM
[12] = second compound 0.316 µM, first compound 1 µM
[13] = second compound 1 µM, first compound 0.0316 µM
[14] = second compound 1 µM, first compound 0.1 µM
[15] = second compound 1 µM, first compound 0.316 µM
[16] = second compound 1 µM, first compound 1 µM
[17] = second compound 3.16 µM, first compound 0.0316 µM
[18] = second compound 3.16 µM, first compound 0.1 µM
[19] = second compound 3.16 µM, first compound 0.316 µM
[20] = second compound 3.16 µM, first compound 1 µM
[21] = second compound 10 µM, first compound 0.0316 µM
[22] = second compound 10 µM, first compound 0.1 µM
[23] = second compound 10 µM, first compound 0.316 µM
[24] = second compound 10 µM, first compound 1 µM
[25] = second compound 0.0316 µM, first compound 3.16 µM
[26] = second compound 0.0316 µM, first compound 10 µM
[27] = second compound 0.1 µM, first compound 3.16 µM
[28] = second compound 0.1 µM, first compound 10 µM
[29] = second compound 0.316 µM, first compound 3.16 µM
[30] = second compound 0.316 µM, first compound 10 µM
[31] = second compound 1 µM, first compound 3.16 µM
[32] = second compound 1 µM, first compound 10 µM
[33] = second compound 3.16 µM, first compound 3.16 µM
[34] = second compound 3.16 µM, first compound 10 µM
[35] = second compound 10 µM, first compound 3.16 µM
[36] = second compound 10 µM, first compound 10 µM
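Note: spheroids exposed to compounds for seven days.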
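Throughout, for viability, T/C: 100% = DMSO vehicle control viability.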

Compound: CCc1c2c(nc3ccc(O)cc13)-c1cc3c(c(=O)n1C2)COC(=O)[C@]3(O)CC + Nc1ccc(C#CCN(C(=O)Cc2ncc(C(F)(F)F)cc2C(F)(F)F)c2ccc(F)cc2)nn1
- IC50 (second compound 0.0316 µM): > 1 µM
- IC50 (second compound 0.1 µM): > 1 µM
- IC50 (second compound 0.316 µM): > 1 µM
- IC50 (second compound 1 µM): > 1 µM
- IC50 (second compound 3.16 µM): > 1 µM
- IC50 (second compound 10 µM): > 1 µM
- viability, T/C (second compound 0.0316 µM, first compound 0.00316 µM): 116%
- viability, T/C (second compound 0.0316 µM, first compound 0.01 µM): 102%
- viability, T/C [1]: 89.6%
- viability, T/C [2]: 90.8%
- viability, T/C [3]: 81.2%
- viability, T/C [4]: 69.9%
- viability, T/C (second compound 0.1 µM, first compound 0.00316 µM): 114%
- viability, T/C (second compound 0.1 µM, first compound 0.01 µM): 107%
- viability, T/C [5]: 95.7%
- viability, T/C [6]: 93.5%
- viability, T/C [7]: 81.2%
- viability, T/C [8]: 60%
- viability, T/C (second compound 0.316 µM, first compound 0.00316 µM): 117%
- viability, T/C (second compound 0.316 µM, first compound 0.01 µM): 109%
- viability, T/C [9]: 85.3%
- viability, T/C [10]: 92.6%
- viability, T/C [11]: 85.8%
- viability, T/C [12]: 68.3%
- viability, T/C (second compound 1 µM, first compound 0.00316 µM): 107%
- viability, T/C (second compound 1 µM, first compound 0.01 µM): 98.7%
- viability, T/C [13]: 88.4%
- viability, T/C [14]: 85.3%
- viability, T/C [15]: 83.6%
- viability, T/C [16]: 52.5%
- viability, T/C (second compound 3.16 µM, first compound 0.00316 µM): 101%
- viability, T/C (second compound 3.16 µM, first compound 0.01 µM): 99.2%
- viability, T/C [17]: 97.9%
- viability, T/C [18]: 92%
- viability, T/C [19]: 77%
- viability, T/C [20]: 60.6%
- viability, T/C (second compound 10 µM, first compound 0.00316 µM): 101%
- viability, T/C (second compound 10 µM, first compound 0.01 µM): 94.8%
- viability, T/C [21]: 86.7%
- viability, T/C [22]: 85%
- viability, T/C [23]: 72.7%
- viability, T/C [24]: 57.1%

Compound: Nc1ccn(C2OC(CO)C(O)C2(F)F)c(=O)n1 (stereo unspecified) + Nc1ccc(C#CCN(C(=O)Cc2ncc(C(F)(F)F)cc2C(F)(F)F)c2ccc(F)cc2)nn1
- IC50 (second compound 0.0316 µM): > 10 µM
- IC50 (second compound 0.1 µM): > 10 µM
- IC50 (second compound 0.316 µM): > 10 µM
- IC50 (second compound 1 µM): > 10 µM
- IC50 (second compound 3.16 µM): > 10 µM
- IC50 (second compound 10 µM): > 10 µM
- viability, T/C [1]: 103%
- viability, T/C [2]: 92.8%
- viability, T/C [3]: 92.1%
- viability, T/C [4]: 91.3%
- viability, T/C [25]: 81.8%
- viability, T/C [26]: 66.6%
- viability, T/C [5]: 98%
- viability, T/C [6]: 96.1%
- viability, T/C [7]: 90.8%
- viability, T/C [8]: 81.3%
- viability, T/C [27]: 80.4%
- viability, T/C [28]: 62.2%
- viability, T/C [9]: 106%
- viability, T/C [10]: 102%
- viability, T/C [11]: 75.9%
- viability, T/C [12]: 78%
- viability, T/C [29]: 79%
- viability, T/C [30]: 68.1%
- viability, T/C [13]: 104%
- viability, T/C [14]: 90.9%
- viability, T/C [15]: 89.4%
- viability, T/C [16]: 78.8%
- viability, T/C [31]: 80.7%
- viability, T/C [32]: 63.7%
- viability, T/C [17]: 102%
- viability, T/C [18]: 93.3%
- viability, T/C [19]: 85.1%
- viability, T/C [20]: 84.8%
- viability, T/C [33]: 83.7%
- viability, T/C [34]: 65.8%
- viability, T/C [21]: 92.5%
- viability, T/C [22]: 86.7%
- viability, T/C [23]: 82.3%
- viability, T/C [24]: 84.6%
- viability, T/C [35]: 89.2%
- viability, T/C [36]: 73.9%

Compound: O=C(c1cc(Cc2n[nH]c(=O)c3ccccc23)ccc1F)N1CCN(C(=O)C2CC2)CC1 + Nc1ccc(C#CCN(C(=O)Cc2ncc(C(F)(F)F)cc2C(F)(F)F)c2ccc(F)cc2)nn1
- IC50 (second compound 0.0316 µM): > 10 µM
- IC50 (second compound 0.1 µM): > 10 µM
- IC50 (second compound 0.316 µM): > 10 µM
- IC50 (second compound 1 µM): > 10 µM
- IC50 (second compound 3.16 µM): > 10 µM
- IC50 (second compound 10 µM): > 10 µM
- viability, T/C [1]: 106%
- viability, T/C [2]: 104%
- viability, T/C [3]: 101%
- viability, T/C [4]: 103%
- viability, T/C [25]: 110%
- viability, T/C [26]: 106%
- viability, T/C [5]: 108%
- viability, T/C [6]: 103%
- viability, T/C [7]: 105%
- viability, T/C [8]: 112%
- viability, T/C [27]: 103%
- viability, T/C [28]: 102%
- viability, T/C [9]: 99.9%
- viability, T/C [10]: 102%
- viability, T/C [11]: 102%
- viability, T/C [12]: 103%
- viability, T/C [29]: 114%
- viability, T/C [30]: 102%
- viability, T/C [13]: 103%
- viability, T/C [14]: 100%
- viability, T/C [15]: 98.7%
- viability, T/C [16]: 95.9%
- viability, T/C [31]: 113%
- viability, T/C [32]: 106%
- viability, T/C [17]: 103%
- viability, T/C [18]: 97.7%
- viability, T/C [19]: 99.9%
- viability, T/C [20]: 103%
- viability, T/C [33]: 117%
- viability, T/C [34]: 104%
- viability, T/C [21]: 95.8%
- viability, T/C [22]: 105%
- viability, T/C [23]: 107%
- viability, T/C [24]: 96.6%
- viability, T/C [35]: 97.6%
- viability, T/C [36]: 96.1%
